Laboratory results: US10730863B2, “Bridged bicyclic compounds as farnesoid X receptor modulators” (BRISTOL-MYERS SQUIBB COMPANY, priority 2017, dated 2020)
pEC50: −log10 of the molar value.

Biological target: FXR (Homo sapiens (Human), UniProt Q96RI1)
Assay: FXR EC50 (FXR agonist activity reported with each example)
Assay type: cell-based

FXR, sequence (Q96RI1 262-486): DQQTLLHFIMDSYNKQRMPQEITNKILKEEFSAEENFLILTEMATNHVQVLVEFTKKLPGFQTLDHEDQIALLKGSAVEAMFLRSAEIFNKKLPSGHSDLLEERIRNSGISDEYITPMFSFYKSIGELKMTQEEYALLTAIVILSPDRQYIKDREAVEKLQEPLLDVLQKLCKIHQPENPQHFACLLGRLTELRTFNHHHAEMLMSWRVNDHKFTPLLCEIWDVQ

Q: How did the pEC50 turn out when `COc1ccc(-c2noc(C34CCC(/C=C/c5c(-c6c(Cl)cncc6Cl)noc5C5CC5)(CC3)OC4)n2)cc1C(=O)O` [Example 496, (E)-5-(5-(1-(2-(5-cyclopropyl-3-(3,5-dichloropyridin-4-yl)isoxazol-4-yl)vinyl)-2-oxabicyclo[2.2.2]octan-4-yl)-1,2,4-oxadiazol-3-yl)-2-methoxybenzoic acid] was run?
A: Its pEC50 is 6.00.

Q: `O=C(O)c1cccc(-c2noc(C34CCC(/C=C\c5c(-c6c(Cl)cccc6Cl)noc5C5CC5)(CC3)CC4)n2)c1` [Example 163, (Z)-3-(5-(4-(2-(5-cyclopropyl-3-(2,6-dichlorophenyl)isoxazol-4-yl)vinyl)bicyclo[2.2.2]octan-1-yl)-1,2,4-oxadiazol-3-yl)benzoic acid] was tested. Which pEC50 did it give?
A: The pEC50 was 6.68.

Q: `O=C(O)c1ccc(C23CCC(/C=C/c4c(-c5c(Cl)cccc5Cl)noc4C4CC4)(CC2)CO3)cc1` [Example 194, (E)-4-(4-(2-(5-cyclopropyl-3-(2,6-dichlorophenyl)isoxazol-4-yl)vinyl)-2-oxabicyclo[2.2.2]octan-1-yl)benzoic acid] was tested. Which pEC50 did it give?
A: The pEC50 was 7.47.

Q: With `CC(C)Oc1cc(-c2noc(C34CCC(OCc5c(-c6c(Cl)cnn6C)noc5C5CC5)(CC3)CC4)n2)cc(C(=O)O)n1` [Example 274, 4-(5-(4-((3-(4-chloro-1-methyl-1H-pyrazol-5-yl)-5-cyclopropylisoxazol-4-yl)methoxy)bicyclo[2.2.2]octan-1-yl)-1,2,4-oxadiazol-3-yl)-6-isopropoxypicolinic acid] as the molecule, how does the pEC50 read?
A: Its pEC50 is 6.05.

Q: With `COC(=O)c1cccc(NC(=O)C23CCC(C=Cc4c(-c5c(Cl)cccc5Cl)noc4C4CC4)(CC2)C3)c1` [Example 229] as the molecule, how does the pEC50 read?
A: The pEC50 was 5.44.

Q: How did the pEC50 turn out when `O=C(O)c1ccc2cc(CCC34CCC(OCc5c(-c6c(Cl)cncc6Cl)noc5C5CC5)(CC3)CC4)ccc2n1` [Example 515, 6-(2-(4-((5-cyclopropyl-3-(3,5-dichloropyridin-4-yl)isoxazol-4-yl)methoxy)bicyclo[2.2.2]octan-1-yl)ethyl)quinoline-2-carboxylicacid] was run?
A: The pEC50 was 7.06.

Q: How did the pEC50 turn out when `N#Cc1cnc2ccc(OCC34CCC(OCc5c(-c6c(Cl)cncc6Cl)noc5C5CC5)(CC3)CC4)nn12` [Example 462, 6-((4-((5-cyclopropyl-3-(3,5-dichloropyridin-4-yl)isoxazol-4-yl)methoxy)bicyclo[2.2.2]octan-1-yl)methoxy)imidazo[1,2-b]pyridazine-3-carbonitrile] was run?
A: Its pEC50 is 6.66.

Q: With `Cn1nc(OCC23CCC(OCc4c(-c5c(Cl)cncc5Cl)noc4C4CC4)(CC2)CC3)cc1C(=O)O` [Example 315] as the molecule, how does the pEC50 read?
A: Its pEC50 is 6.47.

Q: How did the pEC50 turn out when `O=C(O)c1cc(OC(F)F)c2cc(OCC34CCC(/C=C/c5c(-c6c(Cl)cncc6Cl)noc5C5CC5)(CC3)CO4)ccc2n1` [Example 498, (E)-6-((4-(2-(5-cyclopropyl-3-(3,5-dichloropyridin-4-yl)isoxazol-4-yl)vinyl)-2-oxabicyclo[2.2.2]octan-1-yl)methoxy)-4-(difluoromethoxy)quinoline-2-carboxylic acid] was run?
A: The pEC50 was 6.60.

Q: How did the pEC50 turn out when `NC(=O)c1cccc(OCC23CCC(OCc4c(-c5c(Cl)cccc5Cl)noc4C4CC4)(CC2)CC3)n1` [Example 117, 6-((4-((5-cyclopropyl-3-(2,6-dichlorophenyl)isoxazol-4-yl)methoxy)bicyclo[2.2.2]octan-1-yl)methoxy)picolinamide] was run?
A: The pEC50 was 6.51.

Q: `O=C(O)c1cccc2nc(C34CCC(C=Cc5c(-c6c(Cl)cccc6Cl)noc5C5CC5)(CC3)CC4)sc12` [Example 184] was tested. Which pEC50 did it give?
A: Its pEC50 is 7.70.

Q: `COC(=O)c1ccc(-c2noc(C34CCC(OCc5c(-c6ccccc6C(F)(F)F)noc5C5CC5)(CC3)CC4)n2)cc1` [Example 34] was tested. Which pEC50 did it give?
A: The pEC50 was 5.29.

Q: With `O=C(O)c1ccc(F)c(OCC23CCC(OCc4c(-c5c(Cl)cccc5Cl)noc4C4CC4)(CC2)CC3)c1` [Example 92, 3-((4-((5-cyclopropyl-3-(2,6-dichlorophenyl)isoxazol-4-yl)methoxy)bicyclo[2.2.2]octan-1-yl)methoxy)-4-fluorobenzoic acid] as the molecule, how does the pEC50 read?
A: Its pEC50 is 7.64.

Q: With `O=C(O)c1ccc(-c2noc(C34CCC(OCc5c(-c6c(Cl)cccc6Cl)noc5C5CC5)(CC3)CC4)n2)nc1` [Example 9, 6-(5-(4-((5-cyclopropyl-3-(2,6-dichlorophenyl)isoxazol-4-yl)methoxy)bicyclo[2.2.2]octan-1-yl)-1,2,4-oxadiazol-3-yl)nicotinic acid] as the molecule, how does the pEC50 read?
A: The pEC50 was 6.02.

Q: How did the pEC50 turn out when `O=C(O)c1cc2ccc(OCC34CCC(OCc5c(-c6c(Cl)cncc6Cl)noc5C5CC5)(CC3)CC4)cc2cn1` [Example 287] was run?
A: The pEC50 was 7.02.

Q: With `O=C(O)c1cc(OC(F)F)c2cc(C#CC34CCC(OCc5c(-c6c(Cl)cncc6Cl)noc5C5CC5)(CC3)CC4)ccc2n1` [Example 376] as the molecule, how does the pEC50 read?
A: Its pEC50 is 7.57.

Q: How did the pEC50 turn out when `O=C(O)C1(c2cccc(C(O)C34CCC(OCc5c(-c6c(Cl)cccc6Cl)noc5C5CC5)(CC3)CC4)c2)CC1` (centres unmarked) [Example 129, 1-(3-((4-((5-cyclopropyl-3-(2,6-dichlorophenyl)isoxazol-4-yl)methoxy)bicyclo[2.2.2]octan-1-yl)(hydroxy)methyl)phenyl)cyclopropane-1-carboxylic acid] was run?
A: The pEC50 was 5.52.

Q: With `O=C(O)c1ccc(-c2nc(C34CCC(OCc5c(-c6ccccc6C(F)(F)F)noc5C5CC5)(CC3)CC4)no2)cc1` [Example 21, 4-(3-(4-((5-cyclopropyl-3-(2-(trifluoromethyl)phenyl)isoxazol-4-yl)methoxy)bicyclo[2.2.2]octan-1-yl)-1,2,4-oxadiazol-5-yl)benzoic acid] as the molecule, how does the pEC50 read?
A: Its pEC50 is 6.06.

Q: `COc1ccc(-c2nc(C34CCC(OCc5c(-c6c(Cl)cncc6Cl)noc5C5CC5)(CC3)CC4)co2)cc1C(=O)O` [Example 252, 5-(4-(4-((5-cyclopropyl-3-(3,5-dichloropyridin-4-yl)isoxazol-4-yl)methoxy)bicyclo[2.2.2]octan-1-yl)oxazol-2-yl)-2-methoxybenzoic acid] was tested. Which pEC50 did it give?
A: Its pEC50 is 7.07.

Q: With `COc1c(C(=O)O)cc(F)cc1-c1noc(C23CCC(OCc4c(-c5c(Cl)cncc5Cl)noc4C4CC4)(CC2)CC3)n1` [Example 245, 3-(5-(4-((5-cyclopropyl-3-(3,5-dichloropyridin-4-yl)isoxazol-4-yl)methoxy)bicyclo[2.2.2]octan-1-yl)-1,2,4-oxadiazol-3-yl)-5-fluoro-2-methoxybenzoic acid] as the molecule, how does the pEC50 read?
A: The pEC50 was 7.34.

Q: `O=C(O)c1csc(C23CCC(COCc4c(-c5c(Cl)cccc5Cl)noc4C4CC4)(CC2)CO3)n1` [Example 216] was tested. Which pEC50 did it give?
A: The pEC50 was 5.70.

Q: With `CCOc1cc(C(=O)O)nc2c(F)cc(OCC34CCC(OCc5c(-c6c(Cl)cncc6Cl)noc5C5CC5)(CC3)CC4)cc12` [Example 306, 6-((4-((5-cyclopropyl-3-(3,5-dichloropyridin-4-yl)isoxazol-4-yl)methoxy)bicyclo[2.2.2]octan-1-yl)methoxy)-4-ethoxy-8-fluoroquinoline-2-carboxylic acid] as the molecule, how does the pEC50 read?
A: Its pEC50 is 7.96.

Q: With `Cn1cc(C(=O)O)c2ccc(OCC34CCC(OCc5c(-c6ccccc6OC(F)(F)F)noc5C5CC5)(CC3)CC4)cc21` [Example 84] as the molecule, how does the pEC50 read?
A: Its pEC50 is 6.49.

Q: How did the pEC50 turn out when `O=C(O)c1cc(C(F)(F)F)c2cc(OCC34CCC(OCc5c(-c6ccccc6C(F)(F)F)noc5C5CC5)(CC3)CC4)ccc2n1` [Example 288] was run?
A: The pEC50 was 6.60.

Q: How did the pEC50 turn out when `O=C(O)C1CC1c1noc(CC23CCC(OCc4c(-c5c(Cl)cncc5Cl)noc4C4CC4)(CC2)CC3)n1` (centres unmarked) [Example 272, 2-(5-((4-((5-cyclopropyl-3-(3,5-dichloropyridin-4-yl)isoxazol-4-yl)methoxy)bicyclo[2.2.2]octan-1-yl)methyl)-1,2,4-oxadiazol-3-yl)cyclopropane-1-carboxylic acid] was run?
A: Its pEC50 is 6.40.

Q: With `O=C(O)c1ccnc(C#CC23CCC(OCc4c(-c5c(Cl)cccc5Cl)noc4C4CC4)(CC2)CC3)c1` [Example 132, 2-((4-((5-cyclopropyl-3-(2,6-dichlorophenyl)isoxazol-4-yl)methoxy)bicyclo[2.2.2]octan-1-yl)ethynyl)isonicotinic acid] as the molecule, how does the pEC50 read?
A: The pEC50 was 5.46.

Q: How did the pEC50 turn out when `CC(C)Oc1cc(OCC23CCC(OCc4c(-c5c(Cl)cncc5Cl)noc4C4CC4)(CC2)CC3)cnc1C(=O)O` [Example 334, 5-((4-((5-cyclopropyl-3-(3,5-dichloropyridin-4-yl)isoxazol-4-yl)methoxy)bicyclo[2.2.2]octan-1-yl)methoxy)-3-isopropoxypicolinic acid] was run?
A: The pEC50 was 7.68.

Q: With `O=C(O)c1cccc(-c2noc(C34CC(COCc5c(-c6c(Cl)cccc6Cl)noc5C5CC5)(C3)C4)n2)c1` [Example 514, 3-(5-(3-(((5-cyclopropyl-3-(2,6-dichlorophenyl)isoxazol-4-yl)methoxy)methyl)bicyclo[1.1.1]pentan-1-yl)-1,2,4-oxadiazol-3-yl)benzoic acid] as the molecule, how does the pEC50 read?
A: Its pEC50 is 5.77.

Q: `O=C(O)c1cccc(NC(=O)C23CCC(C=Cc4c(-c5c(Cl)cccc5Cl)noc4C4CC4)(CC2)CC3)c1` [Example 190] was tested. Which pEC50 did it give?
A: Its pEC50 is 5.46.

Q: `COc1ccc(-c2noc(C34CCC(/C=C/c5c(-c6c(Cl)cncc6Cl)noc5C5CC5)(CC3)CC4)n2)cc1C(=O)NS(C)(=O)=O` [Example 438, (E)-5-(5-(4-(2-(5-cyclopropyl-3-(3,5-dichloropyridin-4-yl)isoxazol-4-yl)vinyl)bicyclo[2.2.2]octan-1-yl)-1,2,4-oxadiazol-3-yl)-2-methoxy-N-(methylsulfonyl)benzamide] was tested. Which pEC50 did it give?
A: Its pEC50 is 7.48.

Q: `CC(C)Oc1ccc(-c2noc(C34CCC(OCc5c(-c6c(Cl)cncc6Cl)noc5C5CC5)(CC3)CC4)n2)cc1C(=O)O` [Example 256, 5-(5-(4-((5-cyclopropyl-3-(3,5-dichloropyridin-4-yl)isoxazol-4-yl)methoxy)bicyclo[2.2.2]octan-1-yl)-1,2,4-oxadiazol-3-yl)-2-isopropoxybenzoic acid] was tested. Which pEC50 did it give?
A: The pEC50 was 6.59.

Q: How did the pEC50 turn out when `O=C(O)c1cc(C#CC23CCC(OCc4c(-c5c(Cl)cncc5Cl)noc4C4CC4)(CC2)CC3)cc(C(F)(F)F)c1` [Example 366] was run?
A: Its pEC50 is 7.57.

Q: How did the pEC50 turn out when `Cc1cc(OCC23CCC(OCc4c(-c5c(Cl)cncc5Cl)noc4C4CC4)(CC2)CC3)cc(C(=O)O)c1` [Example 322] was run?
A: The pEC50 was 8.15.

Q: `CC(C)(C#N)c1ccc(C23CCC(/C=C/c4c(-c5c(Cl)cncc5Cl)noc4C4CC4)(CC2)CO3)cc1` [Example 475, (E)-2-(4-(4-(2-(5-cyclopropyl-3-(3,5-dichloropyridin-4-yl)isoxazol-4-yl)vinyl)-2-oxabicyclo[2.2.2]octan-1-yl)phenyl)-2-methylpropanenitrile] was tested. Which pEC50 did it give?
A: Its pEC50 is 5.82.

Q: With `O=C(O)c1ccc(C#CC23CCC(OCc4c(-c5c(Cl)cncc5Cl)noc4C4CC4)(CC2)CC3)c2ncccc12` [Example 412] as the molecule, how does the pEC50 read?
A: Its pEC50 is 8.00.
